Source: patent US20210115104A1, “AMYLIN ANALOGUES” (Zealand Pharma A/S, priority 2015, published 2021)
*1 amine or outer side, *2 acyl side, *3 side chain or, on linkers, in order; H or OH if unused. Where a SMILES comes first, the peptide text is derived from it. Bridges are numbered along the chain shown (N, C = ends). [ ]: non-standard residue; d: D form. The star is where a group is joined. C20 diacid = O=C(O)CCCCCCCCCCCCCCCCCCC(=O)*; γGlu = O=C(O)[C@H](CCC(=O)[*:2])N[*:1]; NMeI = CC[C@H](C)[C@H](NC)C(=O)O; Sar = CNCC(=O)O

What was measured:
[1] = Assessment of chemical stability (RP-HPLC normalized purity); type: physicochemical; conditions: for Normalized purity after 7 days, 40° C., pH 4: pH 4, 0.2 mg/ml; for Normalized purity after 7 days, 40° C., pH 4 / Normalized purity after 7 days, 40° C., pH 7.5 / Normalized purity after 7 days, 40° C., pH 9: Table 1; for Normalized purity after 7 days, 40° C., pH 7.5: pH 7.5, 0.2 mg/ml; for Normalized purity after 7 days, 40° C., pH 9: pH 9, 0.2 mg/ml
Experimental: Samples of each test peptide were dissolved in MilliQ™ water, and the pH of the solution was adjusted to pH 4, pH 6, pH 7.5 or pH 9, respectively, using either HCl or NaOH. The final peptide concentration was 0.2 mg/ml. Samples were placed in glass vials and incubated at 40° C. The samples were analyzed by RP-HPLC on a C8 column with gradient elution using an ammonium formate/water eluent system, or on a C18 column with gradient elution using a trifluoroacetic acid/water eluent system. The area-percentage (area-%) of the main peak after incubation time T=t (relative to time T=0) was determined by UV spectroscopy at 220 nm.
The purity was first determined as follows:
Purity(area-%)=(area of main peak/total area of all peaks)×100.
The purity was then normalized between time points by setting purity at time 0 (T=0) to 100 for each pH value for a given peptide, as follows:
Normalised area-% at time t (T=t)=[area-%(T=t)/area-%(T=0)]×100.
The normalized purity values in Table 1 were determined after 7 days of incubation.
The chemical stability assessment described in Example 6 was repeated for four pairs of compounds, each differing only by the presence or absence of an Asn-Asn (N—N) doublet at positions 21 and 22.

[2] = Assessment of physical stability (Thioflavin T fibrillation); type: physicochemical; set-up: key: FND = fibrillation not detected; FD = fibrillation detected; conditions: 1 mg/ml, 40° C., ThT; for Fibrillation pH 4.0 (Ac): 50 mM acetate buffer pH 4.0, 96 hours; for Fibrillation pH 7.0 (His): 50 mM histidine buffer pH 7.0, 96 hours; for Fibrillation pH 7.0 (Phos.): 50 mM phosphate buffer pH 7.0, 96 hours
Experimental: Solutions containing (i) 1 mg/ml of test peptide, 40 μM ThT and 50 mM phosphate (Ph) buffer (pH 7.0), (ii) 1 mg/ml of test peptide, 40 μM ThT and 50 mM histidine (His) buffer (pH 7.0), and (iii) 1 mg/ml of test peptide, 40 μM ThT and 50 mM acetate (Ac) buffer (pH 4.0), were loaded in a 96-well black fluorescence plate (clear bottom) in triplicate. Data were collected at fixed intervals of 10 min, each preceded by 300 s of automixing (agitation), over a period of 96 hours at 40° C. Physical stability, expressed as lag-time of fibril formation (in hours), was defined as the intersection between two linear regressions representing the initial stable phase and the growth phase.

Row | Normalized purity after 7 days, 40° C., pH 4 [1] | Normalized purity after 7 days, 40° C., pH 7.5 [1] | Normalized purity after 7 days, 40° C., pH 9 [1] | Fibrillation pH 4.0 (Ac) [2] | Fibrillation pH 7.0 (His) [2] | Fibrillation pH 7.0 (Phos.) [2] | Normalized purity pH 4 (Table 5) ([1]; pH 4, repeat of Example 6 for pairs with/without Asn-Asn at 21-22) | Normalized purity pH 6 (Table 5) ([1]; pH 6, repeat of Example 6 for pairs with/without Asn-Asn at 21-22) | Normalized purity pH 7.5 (Table 5) ([1]; pH 7.5, repeat of Example 6 for pairs with/without Asn-Asn at 21-22) | Normalized purity pH 9 (Table 5) ([1]; pH 9, repeat of Example 6 for pairs with/without Asn-Asn at 21-22) | SMILES
1 | A (A = >90%) | A (A = >90%) | B (B = 70-90%) | FND | FD | FND |  |  |  |  | CC[C@H](C)[C@@H](C(=O)N[C@@H](CC(C)C)C(=O)N[C@@H](CO)C(=O)N[C@@H](CO)C(=O)N[C@H](C(=O)N[C@@H](CCC(=O)O)C(=O)N[C@H](C(=O)NCC(=O)N[C@@H](CO)C(=O)N[C@@H](CCC(=O)O)C(=O)N[C@H](C(=O)N1CCC[C@H]1C(N)=O)[C@@H](C)O)C(C)C)[C@@H](C)O)N(C)C(=O)[C@H](C)NC(=O)CN(C)C(=O)[C@H](Cc1ccccc1)NC(=O)[C@H](CO)NC(=O)[C@H](CO)NC(=O)[C@H](CCCNC(=N)N)NC(=O)[C@H](Cc1c[nH]cn1)NC(=O)[C@H](CC(C)C)NC(=O)[C@H](Cc1ccccc1)NC(=O)[C@H](Cc1c[nH]cn1)NC(=O)[C@H](C)NC(=O)[C@H](CC(C)C)NC(=O)[C@H](CCCNC(=N)N)NC(=O)[C@H](CCC(N)=O)NC(=O)[C@@H](NC(=O)[C@H](C)NC(=O)[C@@H]1CSSC[C@H](NC(=O)[C@H](CCCNC(=N)N)NC(=O)CC[C@H](NC(=O)CCCCCCCCCCCCCCCCCCC(=O)O)C(=O)O)C(=O)N[C@@H](CC(N)=O)C(=O)N[C@@H]([C@@H](C)O)C(=O)N[C@@H](C)C(=O)N[C@@H]([C@@H](C)O)C(=O)N1)[C@@H](C)O [Compound 2, [19CD]-isoGlu-R-C( )-NTAT-C( )-ATQRLAHFLHRSSF-Gly(Me)-A-Ile(Me)-LSSTEVGSETP-NH2] ({C20 diacid-γGlu}-RCNTATCATQRLAHFLHRSSF[Sar]A[NMeI]LSSTEVGSETP-NH2; disulfide 2-7)
2 | A (A = >90%) | B (B = 70-90%) | B (B = 70-90%) | FD | FD | FD |  |  |  |  | CC[C@H](C)[C@@H](C(=O)N[C@@H](CC(C)C)C(=O)N[C@@H](CO)C(=O)N[C@@H](CO)C(=O)N[C@H](C(=O)N[C@@H](CCC(=O)O)C(=O)N[C@H](C(=O)NCC(=O)N[C@@H](CO)C(=O)N[C@@H](CCC(=O)O)C(=O)N[C@H](C(=O)N1CCC[C@H]1C(N)=O)[C@@H](C)O)C(C)C)[C@@H](C)O)N(C)C(=O)[C@H](C)NC(=O)CN(C)C(=O)[C@H](Cc1ccccc1)NC(=O)[C@H](CO)NC(=O)[C@H](CO)NC(=O)[C@H](CCCNC(=N)N)NC(=O)[C@H](Cc1c[nH]cn1)NC(=O)[C@H](CC(C)C)NC(=O)[C@H](Cc1ccccc1)NC(=O)[C@H](CC(N)=O)NC(=O)[C@H](C)NC(=O)[C@H](CC(C)C)NC(=O)[C@H](CCCNC(=N)N)NC(=O)[C@H](CCC(N)=O)NC(=O)[C@@H](NC(=O)[C@H](C)NC(=O)[C@@H]1CSSC[C@H](NC(=O)[C@H](CCCNC(=N)N)NC(=O)CC[C@H](NC(=O)CCCCCCCCCCCCCCCCCCC(=O)O)C(=O)O)C(=O)N[C@@H](CC(N)=O)C(=O)N[C@@H]([C@@H](C)O)C(=O)N[C@@H](C)C(=O)N[C@@H]([C@@H](C)O)C(=O)N1)[C@@H](C)O [Compound 3, [19CD]-isoGlu-R-C( )-NTAT-C( )-ATQRLANFLHRSSF-Gly(Me)-A-Ile(Me)-LSSTEVGSETP-NH2] ({C20 diacid-γGlu}-RCNTATCATQRLANFLHRSSF[Sar]A[NMeI]LSSTEVGSETP-NH2; disulfide 2-7)
3 |  |  |  |  |  |  | A (A = >90%) | A (A = >90%) | A (A = >90%) | A (A = >90%) | CC[C@H](C)[C@H](NC(=O)[C@@H]1CCCN1C(=O)CNC(=O)[C@H](Cc1ccccc1)NC(=O)[C@H](CO)NC(=O)[C@H](CO)NC(=O)[C@H](Cc1c[nH]cn1)NC(=O)[C@H](Cc1c[nH]cn1)NC(=O)[C@H](CC(C)C)NC(=O)[C@H](Cc1ccccc1)NC(=O)[C@H](CCC(=O)O)NC(=O)[C@H](C)NC(=O)[C@H](CC(C)C)NC(=O)[C@H](CCCNC(=N)N)NC(=O)[C@H](CCC(N)=O)NC(=O)[C@@H](NC(=O)[C@H](C)NC(=O)[C@@H]1CSSC[C@H](NC(=O)[C@H](CCCNC(=N)N)NC(=O)CC[C@H](NC(=O)CCCCCCCCCCCCCCCCCCC(=O)O)C(=O)O)C(=O)N[C@@H](CC(N)=O)C(=O)N[C@@H]([C@@H](C)O)C(=O)N[C@@H](C)C(=O)N[C@@H]([C@@H](C)O)C(=O)N1)[C@@H](C)O)C(=O)N[C@@H](CC(C)C)C(=O)N1CCC[C@H]1C(=O)N1CCC[C@H]1C(=O)N[C@H](C(=O)N[C@@H](CC(N)=O)C(=O)N[C@H](C(=O)NCC(=O)N[C@@H](CO)C(=O)N[C@@H](CC(N)=O)C(=O)N[C@H](C(=O)N1CCC[C@H]1C(N)=O)[C@@H](C)O)C(C)C)[C@@H](C)O [Compound 97, reference compound] ({C20 diacid-γGlu}-RCNTATCATQRLAEFLHHSSFGPILPPTNVGSNTP-NH2; disulfide 2-7)
4 |  |  |  | FD |  | FD |  |  |  |  | CC[C@H](C)[C@H](NC(=O)[C@@H]1CCCN1C(=O)CNC(=O)[C@H](Cc1ccccc1)NC(=O)[C@H](CC(N)=O)NC(=O)[C@H](CC(N)=O)NC(=O)[C@H](CO)NC(=O)[C@H](CO)NC(=O)[C@H](Cc1c[nH]cn1)NC(=O)[C@@H](NC(=O)[C@H](CC(C)C)NC(=O)[C@H](Cc1ccccc1)NC(=O)[C@H](CC(N)=O)NC(=O)[C@H](C)NC(=O)[C@H](CC(C)C)NC(=O)[C@H](CCCNC(=N)N)NC(=O)[C@H](CCC(N)=O)NC(=O)[C@@H](NC(=O)[C@H](C)NC(=O)[C@@H]1CSSC[C@H](NC(=O)[C@@H](N)CCCCN)C(=O)N[C@@H](CC(N)=O)C(=O)N[C@@H]([C@@H](C)O)C(=O)N[C@@H](C)C(=O)N[C@@H]([C@@H](C)O)C(=O)N1)[C@@H](C)O)C(C)C)C(=O)N[C@@H](CC(C)C)C(=O)N1CCC[C@H]1C(=O)N1CCC[C@H]1C(=O)N[C@H](C(=O)N[C@@H](CC(N)=O)C(=O)N[C@H](C(=O)NCC(=O)N[C@@H](CO)C(=O)N[C@@H](CC(N)=O)C(=O)N[C@H](C(=O)N[C@@H](Cc1ccc(O)cc1)C(N)=O)[C@@H](C)O)C(C)C)[C@@H](C)O [Pramlintide, reference compound]
